Source: US9389223B2, “Pharmacodynamic assays” (The United States of America, as represented by the …, priority 2004, dated 2016)

Assays:
acetylated tubulin = assay: Flow cytometry of acetylated tubulin in K562 cells; type: cell-based; settings: single drug
Description: (§1) Leukemia K562 cell line samples containing approximately 5×10^6 to 1×10^7 cells were exposed to either the anti-cancer drug 17-allylaminogeldanamycin (17-AAG) or one of the deacetylase inhibitors MS-275 or trichostatin A (TSA). Some samples received both 17-AAG and TSA or both 17-AAG and MS-275. Control samples received no drug. Administration of the 17-AAG anti-cancer drug led to functional changes in Hsp90 and increased expression of Hsp70. […] TSA is a deacetylase inhibitor that can affect acetylation of numerous proteins. In this study, the effect of TSA on tubulin acetylation was observed using an antibody that specifically binds to acetylated tubulin.
(§2) After treatment with the various drugs, the cells were resuspended in fixation solution (0.4% paraformaldehyde in PBS), incubated at 37° C. for 5-10 minutes and washed with wash buffer. The fixed cells were then resuspended in permeabilization solution (4% Triton X-100 in wash buffer) and incubated at room temperature for 5 minutes. Cells were incubated for 1 hour at room temperature with antibodies to the various pharmacodynamic markers. Several cell samples were incubated with antibodies to several markers at once. […] Fluorescence associated with the cells was detected and quantified by flow cytometry.

acetylated lysine = assay: Flow cytometry of acetylated lysine in K562 cells co-stained for activated caspase 3; type: cell-based, human; settings: K562, 1 μM, 48 hours
Method: (§3) K562 chronic myelogenous leukemia cells were incubated with vehicle alone, 1 μM imatinib (the anticancer drug also known as Gleevec), 1 μM MS-275, or both for 48 hours. The cells were then stained for acetylated lysine as described above and co-stained with antibody to activated caspase 3 as an indicator of cells undergoing apoptosis. Dot plots display acetylated lysine on the x-axis and activated caspase 3 on the y-axis. The multiparameter flow cytometric assay is a powerful tool to monitor pharmacodynamic changes induced by anticancer drugs used in monotherapy or combination therapy protocols. HDAC inhibitors have been reported to promote imatinib-mediated apoptosis in Bcr/Abl+ human myeloid leukemia cells, including imatinib-resistant cells. The effect of MS-275 and imatinib were therefore examined, alone and in combination, on apoptosis in the Bcr/Abl+ cell line K562. Because both MS-275 and imatinib have been reported to induce apoptosis associated with caspase 3 activation, an antibody was used that specifically recognizes activated caspase 3 in a flow assay. This caspase 3 flow assay effectively monitors drug-induced apoptosis. When combined detection of acetylated lysine, this flow assay permitted simultaneous monitoring of apoptosis (caspase 3) and acetylated lysine.

[1] = test system: K562 chronic myelogenous leukemia cells; assay: Flow cytometry of apoptosis (activated caspase 3) in K562 cells; type: cell-based, human; settings: K562, 1 μM, 48 hours, single drug
Method: as §3

Hsp70 = assay: Flow cytometry of Hsp70 levels in K562 cells; type: cell-based; settings: single drug, relative to control cells
Description: as §1, §2

## CC(/C=C/C(=O)NO)=C\[C@@H](C)C(=O)c1ccc(N(C)C)cc1 [TSA, trichostatin A]
Acetylated tubulin
  levels of acetylated tubulin: increased levels of acetylated tubulin

## Nc1ccccc1NC(=O)c1ccc(CNC(=O)OCc2cccnc2)cc1 [MS-275, N-(2-aminophenyl)-4-[N-(pyridin-3-ylmethoxycarbonyl)aminomethyl]benzamide]
Acetylated lysine
  cells with strongly upregulated acetylation: over 50%

## Cc1ccc(NC(=O)c2ccc(CN3CCN(C)CC3)cc2)cc1Nc1nccc(-c2cccnc2)n1 [imatinib, 4-[(4-Methyl-1-piperazinyl)methyl]-N-[4-methyl-3-[[4-(3-pyridinyl)-2-yrimidinyl]amino]-phenyl]benzamide methanesulfonate]
Acetylated lysine
  acetylation of the activated caspase 3 positive cell population: lost acetylation
[1]
  percent of apoptotic cells (activated caspase 3): increased the percent of apoptotic cells

## C=CCNC1=C2C[C@@H](C)C[C@H](OC)[C@H](O)[C@@H](C)/C=C(\C)[C@H](OC(N)=O)[C@@H](OC)/C=C\C=C(/C)C(=O)NC(=CC1=O)C2=O [17-AAG, 17-allylaminogeldanamycin]
Hsp70
  levels of Hsp70: increased levels of Hsp70
